ChEMBL document CHEMBL4304811, “Development of a Water-Soluble Indolylmaleimide Derivative IM-93 Showing Dual Inhibition of Ferroptosis and NETosis” (ACS Med Chem Lett, 2019)
Active and inactive are the calls of the source. The calls are words filed in the database; no cut-off is given here.

How the values were obtained:
[1] = tested on: Tyrosine-protein kinase ABL1 (Homo sapiens), P00519 [Q252H]; assay: Binding affinity to human non-phosphorylated ABL1 Q252H mutant (S229 to K512 residues) expressed in mammalian expression system assessed as residual binding level at 10 uM by Kinomescan method relative to control
[2] = tested on: ALK tyrosine kinase receptor (Homo sapiens), Q9UM73 [C1156Y]; assay: Binding affinity to […] human partial length ALK C1156Y mutant (I1088 to E1409 residues) expressed in mammalian expression system assessed as residual binding level at 10 uM by Kinomescan method relative to control
[3] = molecular target: Bone morphogenetic protein receptor type-2 (Homo sapiens) (UniProt Q13873); assay: Binding affinity to wild-type human partial length BMPR2 (R179 to Q526 residues) expressed in mammalian expression system assessed as residual binding level at 10 uM by Kinomescan method relative to control
[4] = molecular target: Peripheral plasma membrane protein CASK (Homo sapiens) (UniProt O14936); assay: Binding affinity to wild-type human partial length CASK (M1 to H315 residues) expressed in mammalian expression system assessed as residual binding level at 10 uM by Kinomescan method relative to control
[5] = molecular target: Dual specificity protein kinase CLK1 (Homo sapiens) (UniProt P49759); assay: Binding affinity to wild-type human full length CLK1 (M1 to I484 residues) expressed in bacterial expression system assessed as residual binding level at 10 uM by Kinomescan method relative to control
[6] = molecular target: Casein kinase I isoform alpha-like (Homo sapiens) (UniProt Q8N752); assay: Binding affinity to wild-type human full length CSNK1A1L (M1 to N337 residues) expressed in bacterial expression system assessed as residual binding level at 10 uM by Kinomescan method relative to control
[7] = molecular target: Serine/threonine-protein kinase DCLK3 (Homo sapiens) (UniProt Q9C098); assay: Binding affinity to wild-type human partial length DCAMKL3 (E140 to V628 residues) expressed in bacterial expression system assessed as residual binding level at 10 uM by Kinomescan method relative to control
Sequence of Serine/threonine-protein kinase DCLK3 (Homo sapiens) (Q9C098 whole entry, the tested form may be a part): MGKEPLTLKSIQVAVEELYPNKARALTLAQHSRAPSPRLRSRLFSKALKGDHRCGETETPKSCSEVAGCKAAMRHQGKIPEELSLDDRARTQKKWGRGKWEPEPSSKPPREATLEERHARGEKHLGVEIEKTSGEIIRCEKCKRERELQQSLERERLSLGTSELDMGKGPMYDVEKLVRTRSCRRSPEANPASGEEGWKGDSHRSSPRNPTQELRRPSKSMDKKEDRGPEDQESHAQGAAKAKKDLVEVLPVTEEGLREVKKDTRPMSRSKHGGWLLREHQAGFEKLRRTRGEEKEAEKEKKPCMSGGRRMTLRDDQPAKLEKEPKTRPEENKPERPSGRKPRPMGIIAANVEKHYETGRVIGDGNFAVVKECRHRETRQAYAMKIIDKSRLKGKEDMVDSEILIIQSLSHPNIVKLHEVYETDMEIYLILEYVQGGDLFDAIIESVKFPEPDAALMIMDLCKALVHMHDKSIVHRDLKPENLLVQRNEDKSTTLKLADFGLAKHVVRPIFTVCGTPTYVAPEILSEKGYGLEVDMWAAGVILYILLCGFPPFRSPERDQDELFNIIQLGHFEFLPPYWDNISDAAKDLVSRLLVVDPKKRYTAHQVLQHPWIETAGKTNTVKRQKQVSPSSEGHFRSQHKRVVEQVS

[8] = molecular target: Epidermal growth factor receptor (Homo sapiens) (UniProt P00533); assay: Binding affinity to wild-type human partial length EGFR (R669 to V1011 residues) expressed in bacterial expression system assessed as residual binding level at 10 uM by Kinomescan method relative to control
Sequence of Epidermal growth factor receptor (Homo sapiens) (P00533 whole entry, the tested form may be a part): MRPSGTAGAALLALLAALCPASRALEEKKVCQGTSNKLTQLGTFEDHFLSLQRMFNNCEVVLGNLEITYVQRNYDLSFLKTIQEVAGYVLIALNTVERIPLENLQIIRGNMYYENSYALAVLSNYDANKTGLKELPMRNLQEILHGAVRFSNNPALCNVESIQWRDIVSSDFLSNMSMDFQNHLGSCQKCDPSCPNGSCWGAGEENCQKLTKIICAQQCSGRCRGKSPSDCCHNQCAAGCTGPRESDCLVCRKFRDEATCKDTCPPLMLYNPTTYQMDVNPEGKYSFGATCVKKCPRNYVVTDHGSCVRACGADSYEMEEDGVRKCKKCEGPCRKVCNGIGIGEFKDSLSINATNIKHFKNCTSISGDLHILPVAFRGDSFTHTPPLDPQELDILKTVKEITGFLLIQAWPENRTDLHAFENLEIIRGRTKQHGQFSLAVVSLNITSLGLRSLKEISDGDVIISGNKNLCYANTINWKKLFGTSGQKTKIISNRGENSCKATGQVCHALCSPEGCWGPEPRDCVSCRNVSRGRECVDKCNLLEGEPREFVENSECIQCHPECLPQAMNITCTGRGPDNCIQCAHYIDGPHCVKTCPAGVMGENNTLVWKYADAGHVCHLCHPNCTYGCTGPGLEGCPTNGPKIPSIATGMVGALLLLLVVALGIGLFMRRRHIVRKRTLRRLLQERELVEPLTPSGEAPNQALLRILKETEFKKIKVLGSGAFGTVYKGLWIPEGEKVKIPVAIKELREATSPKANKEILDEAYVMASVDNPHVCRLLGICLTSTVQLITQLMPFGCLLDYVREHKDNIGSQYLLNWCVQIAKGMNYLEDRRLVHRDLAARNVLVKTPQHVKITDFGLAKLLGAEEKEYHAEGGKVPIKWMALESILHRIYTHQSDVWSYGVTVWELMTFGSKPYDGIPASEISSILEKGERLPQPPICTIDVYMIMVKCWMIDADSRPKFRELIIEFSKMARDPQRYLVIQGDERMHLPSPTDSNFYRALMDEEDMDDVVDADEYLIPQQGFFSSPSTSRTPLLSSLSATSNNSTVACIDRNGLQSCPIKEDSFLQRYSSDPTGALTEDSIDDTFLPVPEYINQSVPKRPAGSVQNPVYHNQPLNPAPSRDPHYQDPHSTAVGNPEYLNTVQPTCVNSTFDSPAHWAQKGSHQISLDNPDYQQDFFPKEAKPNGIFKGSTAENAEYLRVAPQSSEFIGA

[9] = molecular target: Receptor tyrosine-protein kinase erbB-3 (Homo sapiens) (UniProt P21860); assay: Binding affinity to wild-type human partial length ERBB3 (G684 to A987 residues) expressed in mammalian expression system assessed as residual binding level at 10 uM by Kinomescan method relative to control
[10] = molecular target: Dual specificity mitogen-activated protein kinase kinase 7 (Homo sapiens) (UniProt O14733); assay: Binding affinity to wild-type human full length MKK7 (M1 to R419 residues) expressed in mammalian expression system assessed as residual binding level at 10 uM by Kinomescan method relative to control
[11] = molecular target: Serine/threonine-protein kinase 24 (Homo sapiens) (UniProt Q9Y6E0); assay: Binding affinity to wild-type human partial length MST3 (A30 to S311 residues) expressed in bacterial expression system assessed as residual binding level at 10 uM by Kinomescan method relative to control
[12] = molecular target: Myosin-IIIa (Homo sapiens) (UniProt Q8NEV4); assay: Binding affinity to wild-type human partial length MYO3A (M1 to K338 residues) expressed in bacterial expression system assessed as residual binding level at 10 uM by Kinomescan method relative to control
[13] = molecular target: Serine/threonine-protein kinase Nek2 (Homo sapiens) (UniProt P51955); assay: Binding affinity to wild-type human partial length NEK2 (M1 to K309 residues) expressed in bacterial expression system assessed as residual binding level at 10 uM by Kinomescan method relative to control
[14] = molecular target: Serine/threonine-protein kinase Nek7 (Homo sapiens) (UniProt Q8TDX7); assay: Binding affinity to wild-type human full length NEK7 (M1 to S302 residues) expressed in bacterial expression system assessed as residual binding level at 10 uM by Kinomescan method relative to control
[15] = molecular target: Mitogen-activated protein kinase 13 (Homo sapiens) (UniProt O15264); assay: Binding affinity to wild-type human full length p38-delta (M1 to L365 residues) expressed in bacterial expression system assessed as residual binding level at 10 uM by Kinomescan method relative to control
[16] = molecular target: Cyclin-dependent kinase 17 (Homo sapiens) (UniProt Q00537); assay: Binding affinity to wild-type human full length PCTK2 (M1 to F523 residues) expressed in bacterial expression system assessed as residual binding level at 10 uM by Kinomescan method relative to control
Sequence of Cyclin-dependent kinase 17 (Homo sapiens) (Q00537 whole entry, looked up, the tested form may be a part, canonical isoform): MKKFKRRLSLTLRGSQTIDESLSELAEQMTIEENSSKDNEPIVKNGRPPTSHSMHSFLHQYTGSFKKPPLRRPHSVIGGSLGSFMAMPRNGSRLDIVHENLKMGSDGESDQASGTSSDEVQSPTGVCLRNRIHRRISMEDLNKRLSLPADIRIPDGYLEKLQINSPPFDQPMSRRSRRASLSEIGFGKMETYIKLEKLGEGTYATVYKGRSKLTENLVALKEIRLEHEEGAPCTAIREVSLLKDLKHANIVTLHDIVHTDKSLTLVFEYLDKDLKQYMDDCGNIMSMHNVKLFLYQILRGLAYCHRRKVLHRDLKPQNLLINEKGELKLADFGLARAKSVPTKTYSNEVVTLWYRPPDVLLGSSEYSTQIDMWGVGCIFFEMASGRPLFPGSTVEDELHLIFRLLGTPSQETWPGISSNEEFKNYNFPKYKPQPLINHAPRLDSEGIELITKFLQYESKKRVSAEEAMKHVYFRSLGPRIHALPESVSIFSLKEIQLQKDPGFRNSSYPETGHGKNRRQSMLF

[17] = tested on: Phosphatidylinositol 4,5-bisphosphate 3-kinase catalytic subunit alpha isoform (Homo sapiens), P42336 [H1047L]; assay: Binding affinity to human partial length PIK3CA H1047L mutant (R108 to N1068 residues) expressed in mammalian expression system assessed as residual binding level at 10 uM by Kinomescan method relative to control
Sequence of Phosphatidylinositol 4,5-bisphosphate 3-kinase catalytic subunit alpha isoform (Homo sapiens), P42336 [H1047L] (P42336 whole entry H1047L, the tested form may be a part, canonical isoform): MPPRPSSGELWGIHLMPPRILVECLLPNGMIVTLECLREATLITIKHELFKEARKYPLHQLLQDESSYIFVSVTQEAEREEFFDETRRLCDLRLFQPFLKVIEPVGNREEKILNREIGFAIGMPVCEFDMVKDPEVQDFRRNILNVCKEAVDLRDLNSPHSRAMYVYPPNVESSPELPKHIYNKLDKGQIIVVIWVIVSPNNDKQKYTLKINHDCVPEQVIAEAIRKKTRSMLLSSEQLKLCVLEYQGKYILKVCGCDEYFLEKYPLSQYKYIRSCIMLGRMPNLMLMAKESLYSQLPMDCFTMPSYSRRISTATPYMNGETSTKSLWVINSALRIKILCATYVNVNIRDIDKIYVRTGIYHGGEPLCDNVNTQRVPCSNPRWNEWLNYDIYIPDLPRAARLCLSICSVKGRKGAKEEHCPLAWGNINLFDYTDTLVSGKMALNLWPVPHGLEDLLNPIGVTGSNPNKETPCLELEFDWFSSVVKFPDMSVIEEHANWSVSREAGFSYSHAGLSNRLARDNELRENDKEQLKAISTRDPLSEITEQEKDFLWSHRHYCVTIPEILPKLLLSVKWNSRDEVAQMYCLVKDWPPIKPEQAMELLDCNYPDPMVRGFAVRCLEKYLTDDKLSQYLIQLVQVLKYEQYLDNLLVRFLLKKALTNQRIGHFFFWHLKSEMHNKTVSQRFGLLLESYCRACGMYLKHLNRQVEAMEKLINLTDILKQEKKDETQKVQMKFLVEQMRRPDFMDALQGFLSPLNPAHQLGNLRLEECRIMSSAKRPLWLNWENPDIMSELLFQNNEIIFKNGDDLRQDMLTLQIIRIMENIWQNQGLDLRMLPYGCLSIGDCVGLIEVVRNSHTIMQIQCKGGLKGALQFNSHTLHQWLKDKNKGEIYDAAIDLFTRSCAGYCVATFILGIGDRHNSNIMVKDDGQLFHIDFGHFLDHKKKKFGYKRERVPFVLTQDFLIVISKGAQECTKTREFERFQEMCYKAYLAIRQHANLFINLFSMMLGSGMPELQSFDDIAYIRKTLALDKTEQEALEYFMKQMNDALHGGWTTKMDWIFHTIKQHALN

[18] = molecular target: Receptor-interacting serine/threonine-protein kinase 4 (Homo sapiens) (UniProt P57078); assay: Binding affinity to wild-type human partial length RIPK4 (M1 to V303 residues) expressed in mammalian expression system assessed as residual binding level at 10 uM by Kinomescan method relative to control
[19] = molecular target: Ribosomal protein S6 kinase alpha-6 (Homo sapiens) (UniProt Q9UK32); assay: Binding affinity to wild-type human partial length N- terminal RSK4 kinase domain 1 (M1 to E397 residues) expressed in mammalian expression system assessed as residual binding level at 10 uM by Kinomescan method relative to control
Sequence of Ribosomal protein S6 kinase alpha-6 (Homo sapiens) (Q9UK32 whole entry, the tested form may be a part): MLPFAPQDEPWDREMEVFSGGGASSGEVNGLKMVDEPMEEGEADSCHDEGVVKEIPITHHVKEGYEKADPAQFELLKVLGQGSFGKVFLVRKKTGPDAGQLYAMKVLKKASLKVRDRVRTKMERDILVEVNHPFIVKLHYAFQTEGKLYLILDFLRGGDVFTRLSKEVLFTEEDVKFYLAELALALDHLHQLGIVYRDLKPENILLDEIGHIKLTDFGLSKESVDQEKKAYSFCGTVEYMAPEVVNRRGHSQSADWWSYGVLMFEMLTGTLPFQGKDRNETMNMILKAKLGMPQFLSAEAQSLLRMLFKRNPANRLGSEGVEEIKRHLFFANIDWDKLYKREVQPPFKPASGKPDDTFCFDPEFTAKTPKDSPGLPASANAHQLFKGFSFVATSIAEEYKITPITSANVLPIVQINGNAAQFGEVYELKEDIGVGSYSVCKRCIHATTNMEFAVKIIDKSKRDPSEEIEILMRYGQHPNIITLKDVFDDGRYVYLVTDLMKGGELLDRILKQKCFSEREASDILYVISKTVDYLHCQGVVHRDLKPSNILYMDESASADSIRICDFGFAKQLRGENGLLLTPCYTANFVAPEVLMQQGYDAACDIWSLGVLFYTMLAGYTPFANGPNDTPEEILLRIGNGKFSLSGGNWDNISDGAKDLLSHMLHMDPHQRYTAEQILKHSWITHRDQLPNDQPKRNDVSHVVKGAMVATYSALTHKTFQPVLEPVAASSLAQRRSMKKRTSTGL

[20] = molecular target: STE20/SPS1-related proline-alanine-rich protein kinase (Homo sapiens) (UniProt Q9UEW8); assay: Binding affinity to wild-type human partial length STK39 (P43 to I357 residues) expressed in mammalian expression system assessed as residual binding level at 10 uM by Kinomescan method relative to control
[21] = molecular target: BDNF/NT-3 growth factors receptor (Homo sapiens) (UniProt Q16620); assay: Binding affinity to wild-type human partial length TRKB (Q547 to G838 residues) expressed in mammalian expression system assessed as residual binding level at 10 uM by Kinomescan method relative to control
[22] = molecular target: Tyrosine-protein kinase TXK (Homo sapiens) (UniProt P42681); assay: Binding affinity to wild-type human partial length TXK (L238 to W527 residues) expressed in bacterial expression system assessed as residual binding level at 10 uM by Kinomescan method relative to control
[23] = molecular target: Mitogen-activated protein kinase kinase kinase 20 (Homo sapiens) (UniProt Q9NYL2); assay: Binding affinity to wild-type human partial length ZAK (M1 to L331 residues) expressed in bacterial expression system assessed as residual binding level at 10 uM by Kinomescan method relative to control
Sequence of Mitogen-activated protein kinase kinase kinase 20 (Homo sapiens) (Q9NYL2 2-800 limits assumed): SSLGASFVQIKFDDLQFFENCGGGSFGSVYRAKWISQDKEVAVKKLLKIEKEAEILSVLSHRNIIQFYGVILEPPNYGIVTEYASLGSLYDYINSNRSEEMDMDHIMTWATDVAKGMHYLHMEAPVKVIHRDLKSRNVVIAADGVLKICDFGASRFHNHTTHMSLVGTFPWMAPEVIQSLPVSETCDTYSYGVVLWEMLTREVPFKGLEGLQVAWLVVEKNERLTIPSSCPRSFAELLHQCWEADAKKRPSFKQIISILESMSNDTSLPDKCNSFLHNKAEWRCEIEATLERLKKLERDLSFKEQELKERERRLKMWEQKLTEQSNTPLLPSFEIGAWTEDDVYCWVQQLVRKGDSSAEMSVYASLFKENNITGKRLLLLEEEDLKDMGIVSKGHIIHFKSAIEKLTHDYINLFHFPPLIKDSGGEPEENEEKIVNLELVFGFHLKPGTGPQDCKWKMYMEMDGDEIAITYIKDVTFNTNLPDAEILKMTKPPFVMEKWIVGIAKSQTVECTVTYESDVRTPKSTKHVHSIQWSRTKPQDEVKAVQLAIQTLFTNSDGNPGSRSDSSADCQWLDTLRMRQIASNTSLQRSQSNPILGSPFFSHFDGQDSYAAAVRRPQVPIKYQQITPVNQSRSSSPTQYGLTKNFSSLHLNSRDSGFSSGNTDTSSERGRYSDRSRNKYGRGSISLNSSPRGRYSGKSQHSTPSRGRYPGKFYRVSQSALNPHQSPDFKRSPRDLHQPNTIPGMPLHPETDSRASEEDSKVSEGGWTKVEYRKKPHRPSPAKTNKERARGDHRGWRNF

Jurkat = assay: Cytoprotection against fas ligand/cycloheximide/Z-VAD-fmk-induced necroptosis in human Jurkat cells at 4 to 25 uM measured after 20 hrs by WST-8 assay; format: functional, cell-based

With `CC(C)N1C(=O)C(NCCCN(C)C)=C(c2cn(C)c3ccccc23)C1=O.Cl` the Activity [1] was 100%, the Activity [2] was 90% and the Activity [3] was 100%. It also gave an Activity [4] of 92%, an Activity [5] of 98% and an Activity [6] of 99%. It also gave an Activity [7] of 100%, an Activity [8] of 89% and an Activity [9] of 93%. The Activity [10] was 88%, the Activity [11] was 100% and the Activity [12] was 89%. It also gave an Activity [13] of 94%, an Activity [14] of 95% and an Activity [15] of 100%. For the same compound, the Activity [16] was 99%, the Activity [17] was 78% and the Activity [18] was 100%. The Activity [19] was 94%, the Activity [20] was 98% and the Activity [21] was 94%. The Activity [22] was 88%, the Activity [23] was 84% and the Activity (Jurkat) was “inactive”.
